Experiment [1] has as its target c-kit kinase (Homo sapiens (Human), UniProt P10721). The experiment in a line: c-Kit biochemical assay (AlphaScreen). Conditions: c-kit biochemical inhibitory activity. As to the method: Assays for biochemical cell-based activity of c-kit kinase are known in the art, for example, as described in U.S. Pat. Nos. 7,498,342 and 7,846,941, the disclosures of which are hereby incorporated by reference as it relates to such assays. The c-kit (or kinase domain thereof) is an active kinase in AlphaScreen. IC50 values are determined with respect to inhibition of c-Kit kinase activity, where inhibition of phosphorylation of a peptide substrate is measured as a function of compound concentration. Compounds to be tested were dissolved in DMSO to a concentration of 20 mM. These were diluted 30 μl into 120 μl of DMSO (4 mM) and 1 μl was added to an assay plate. These were then serially diluted 1:3 (50 μl to 100 μl DMSO) for a total of 8 points. Plates were prepared such that each kinase reaction is 20 μl in 1× kinase buffer (50 mM HEPES, pH 7.2, 5 mM MgCl2, 5 mM MnCl2, 0.01% NP-40, 0.2% BSA), 5% DMSO and 10 µM ATP. Substrate was 100 nM biotin-(E4Y)3 (Open Source Biotech, Inc.). C-kit kinase was at 0.1 ng per sample. After incubation of the kinase reaction for 1 hour at room temperature, 5 μl of donor beads (Streptavidin coated beads (Perkin Elmer Life Science) final concentration 1 μg/ml) in stop buffer (50 mM EDTA in 1× kinase buffer) was added, the sample was mixed and incubated for 20 minutes at room temperature before adding 5 μl of acceptor beads (PY20 coated beads (Perkin Elmer Life Science) final concentration 1 μg/ml) in stop buffer. The samples were incubated for 60 minutes at room temperature and the signal per well was read on AlphaQuest reader. Phosphorylated substrate results in binding of the PY20 antibody and association of the donor and acceptor beads such that signal correlates with kinase activity. The signal vs. compound concentration was used to determine the IC50.
Compounds were also tested using a similar assay with a 10-fold higher ATP concentration. For these samples, compounds to be tested were dissolved in DMSO to a concentration of 20 mM. These were diluted 30 μl into 120 μl of DMSO (4 mM) and 1 μl was added to an assay plate. These were then serially diluted 1:3 (50 μl to 100 μl DMSO) for a total of 8 points. Plates were prepared such that each kinase reaction is 20 μl in 1× kinase buffer (25 mM HEPES, pH 7.5, 2 mM MgCl2, 2 mM MnCl2, 0.01% Tween-20, 1 mM DTT, and 0.001% BSA), 5% DMSO and 100 µM ATP. Substrate was 30 nM biotin-(E4Y)10 (Upstate Biotech, Cat#12-440). C-kit kinase was at 1 ng per sample. After incubation of the kinase reaction for 1 hour at room temperature, 5 μl of donor beads (Streptavidin coated beads (Perkin Elmer Life Science) final concentration 10 μg/ml) in stop buffer (25 mM HEPES pH 7.5, 100 mM EDTA, 0.3% BSA) was added, the sample was mixed and incubated for 20 minutes at room temperature before adding 5 μl of acceptor beads (PY20 coated beads (Perkin Elmer Life Science) final concentration 10 μg/ml) in stop buffer. The samples were incubated for 60 minutes at room temperature and the signal per well was read on AlphaQuest or Envision reader (Perkin Elmer Life Science). Phosphorylated substrate results in binding of the PY20 antibody and association of the donor and acceptor beads such that signal correlates with kinase activity. The signal vs. compound concentration was used to determine the IC50.
The c-kit enzyme used in the above assay was either obtained from Cell Signaling Technology (Cat. #7754) or was prepared as follows: A plasmid encoding kit (DNA and encoded protein sequences shown below) was engineered using common polymerase chain reaction (PCR) methods. Complementary DNA cloned from various human tissues were purchased from Invitrogen, and these were used as substrates in the PCR reactions. Specific custom synthetic oligonucleotide primers were designed to initiate the PCR product, and also to provide the appropriate restriction enzyme cleavage sites for ligation with the plasmids. […]
On the technique in general: Bead proximity is the source of the signal in Alpha formats.

For experiment [2], the system named is BaF3-FL KIT D816V or BaF3-FL KIT V560G/D816V cell line. In words: Cell-based assays of c-Kit mutant kinase activity (cell growth, ATPlite). Conditions: at least one of the c-kit cell assays of Example 26. The method in brief:
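IC50 derived from ATP-content luminescence (ATPlite) after three-day compound exposure at 37° C., 5% CO2. Cells: BaF3 rendered growth-dependent on full-length human KIT D816V or V560G/D816V, 1×10^4 per well, RPMI plus 10% FBS; 8 points, 1:3 steps, maximum 10 μM final, 0.2% DMSO.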

This note sets out measurements from US10301280B2 (Plexxikon Inc., priority 2012, dated 2019).

SMILES strings stand for the structures.

c-kit kinase, sequence (P10721 26-976): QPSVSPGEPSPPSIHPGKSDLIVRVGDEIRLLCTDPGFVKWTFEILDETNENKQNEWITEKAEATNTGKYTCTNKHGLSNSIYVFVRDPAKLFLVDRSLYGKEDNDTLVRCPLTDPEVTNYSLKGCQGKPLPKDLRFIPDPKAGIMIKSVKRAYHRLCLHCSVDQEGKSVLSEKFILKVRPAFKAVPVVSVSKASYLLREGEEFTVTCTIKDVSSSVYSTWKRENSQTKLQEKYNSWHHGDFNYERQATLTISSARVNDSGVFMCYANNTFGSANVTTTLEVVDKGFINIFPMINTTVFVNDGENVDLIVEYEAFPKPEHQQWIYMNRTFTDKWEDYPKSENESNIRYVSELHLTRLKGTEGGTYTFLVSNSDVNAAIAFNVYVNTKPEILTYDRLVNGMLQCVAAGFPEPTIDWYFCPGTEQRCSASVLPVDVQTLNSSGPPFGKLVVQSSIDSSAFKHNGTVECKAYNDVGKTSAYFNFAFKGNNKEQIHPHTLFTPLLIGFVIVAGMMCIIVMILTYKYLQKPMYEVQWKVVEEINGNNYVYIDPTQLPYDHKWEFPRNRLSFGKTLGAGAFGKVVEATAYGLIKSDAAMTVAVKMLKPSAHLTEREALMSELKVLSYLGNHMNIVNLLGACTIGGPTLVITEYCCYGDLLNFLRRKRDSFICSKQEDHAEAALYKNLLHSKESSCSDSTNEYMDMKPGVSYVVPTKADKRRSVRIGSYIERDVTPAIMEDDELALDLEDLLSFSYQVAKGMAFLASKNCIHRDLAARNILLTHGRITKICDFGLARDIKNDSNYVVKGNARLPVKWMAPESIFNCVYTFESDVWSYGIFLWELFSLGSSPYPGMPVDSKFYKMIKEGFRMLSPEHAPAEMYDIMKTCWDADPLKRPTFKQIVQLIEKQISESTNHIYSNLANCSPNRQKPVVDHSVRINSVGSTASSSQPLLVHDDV

Take `O=C(Nc1cnc2[nH]c(-c3ccccc3)cc2c1)c1ncccc1F` [P-2012, 3-fluoro-N-(2-phenyl-1H-pyrrolo[2,3-b]pyridin-5-yl)pyridine-2-carboxamide]: the figures for the half-maximal inhibitory concentration (IC50) in experiment [1] and in experiment [2] were 0.0001 to 1 µM and below 10 µM, respectively.
On to `Cc1noc(C)c1C(=O)Nc1cnc2[nH]c(-c3ccccc3)cc2c1` [P-2013, 3,5-dimethyl-N-(2-phenyl-1H-pyrrolo[2,3-b]pyridin-5-yl)isoxazole-4-carboxamide], for which the half-maximal inhibitory concentration (IC50) in experiment [1] is 0.0001 to 1 µM; in experiment [2], below 10 µM.
For `O=C(Nc1cnc2[nH]c(-c3ccccc3)cc2c1)c1cn[nH]n1` [P-2015, N-(2-phenyl-1H-pyrrolo[2,3-b]pyridin-5-yl)-2H-triazole-4-carboxamide] the same measures were 1 to 10 µM and below 10 µM.
For the molecule `Cc1cccnc1C(=O)Nc1cnc2[nH]c(-c3ccccc3)cc2c1` [P-2016, 3-methyl-N-(2-phenyl-1H-pyrrolo[2,3-b]pyridin-5-yl)pyridine-2-carboxamide], the IC50 is 1 to 10 µM in experiment [1] and below 10 µM in experiment [2].
`Cc1cc(C(=O)Nc2cnc3[nH]c(-c4ccc(F)cc4)cc3c2)[nH]n1` [P-2019, N-[2-(4-fluorophenyl)-1H-pyrrolo[2,3-b]pyridin-5-yl]-3-methyl-1H-pyrazole-5-carboxamide]: the results for the half-maximal inhibitory concentration (IC50) in experiment [1] and in experiment [2] were 10 to 200 µM and below 10 µM, respectively.
`Cc1n[nH]c(C(=O)Nc2cnc3[nH]c(-c4ccc(F)cc4)cc3c2)c1Cl` [P-2023, 4-chloro-N-[2-(4-fluorophenyl)-1H-pyrrolo[2,3-b]pyridin-5-yl]-3-methyl-1H-pyrazole-5-carboxamide]: the values for the half-inhibitory concentration (IC50) in experiment [1] and in experiment [2] were 1 to 10 µM and below 10 µM, respectively.
For `Cc1n[nH]c(C(=O)Nc2cnc3[nH]c(-c4ccc(F)cc4)cc3c2)c1C` [P-2024, N-[2-(4-fluorophenyl)-1H-pyrrolo[2,3-b]pyridin-5-yl]-3,4-dimethyl-1H-pyrazole-5-carboxamide] the same measures were 10 to 200 µM and below 10 µM.
The matching figures for `CC(=O)Nc1cccc(C(=O)Nc2cnc3[nH]c(-c4ccc(F)cc4)cc3c2)c1` [P-2026, 3-acetamido-N-[2-(4-fluorophenyl)-1H-pyrrolo[2,3-b]pyridin-5-yl]benzamide]: 0.0001 to 1 µM and below 10 µM.
Consider `O=C(Nc1cnc2[nH]c(-c3ccc(F)cc3)cc2c1)c1cccc2n[nH]cc12` [P-2027, N-[2-(4-fluorophenyl)-1H-pyrrolo[2,3-b]pyridin-5-yl]-2H-indazole-4-carboxamide], for which the IC50 in experiment [1] is 0.0001 to 1 µM; in experiment [2], below 10 µM.
`Cc1c[nH]nc1C(=O)Nc1cnc2[nH]c(-c3ccc(F)cc3)cc2c1` [P-2029, N-[2-(4-fluorophenyl)-1H-pyrrolo[2,3-b]pyridin-5-yl]-4-methyl-1H-pyrazole-3-carboxamide]: the half-inhibitory concentration (IC50) in experiment [1] was 0.0001 to 1 µM; in experiment [2], below 10 µM.
On to `CCn1nccc1S(=O)(=O)Nc1cnc2[nH]c(-c3ccc(F)cc3)cc2c1` [P-2030, 2-ethyl-N-[2-(4-fluorophenyl)-1H-pyrrolo[2,3-b]pyridin-5-yl]pyrazole-3-sulfonamide], for which the 50% inhibitory concentration (IC50) in experiment [1] is 1 to 10 µM; in experiment [2], below 10 µM.
For the molecule `Cc1cc(C(=O)Nc2cnc3[nH]c(C4=CCN(C(=O)N5CCOCC5)CC4)cc3c2)n[nH]1` [P-2031, 5-methyl-N-[2-[1-(morpholine-4-carbonyl)-3,6-dihydro-2H-pyridin-4-yl]-1H-pyrrolo[2,3-b]pyridin-5-yl]-1H-pyrazole-3-carboxamide], the figures for the concentration for half-maximal inhibition (IC50) in experiment [1] and in experiment [2] were 0.0001 to 1 µM and below 10 µM, respectively.
The matching figures for `Cc1n[nH]c(C(=O)Nc2cnc3[nH]ccc3c2)c1C` [P-2032, 3,4-dimethyl-N-(1H-pyrrolo[2,3-b]pyridin-5-yl)-1H-pyrazole-5-carboxamide]: 10 to 200 µM and below 10 µM.

For orientation: IC50 means the concentration that inhibits the measured activity by half. A lower IC50 goes with greater potency in that assay.
